Experimental data taken from ChEMBL document CHEMBL3351749, “Synthesis, in vitro antimicrobial and cytotoxic activities of new carbazole derivatives of ursolic acid” (Bioorg Med Chem Lett, 2015).
Values after ≈ are worked out from the molar mass of the structure shown.

Legend:
Bacillus subtilis = experiment: Antimicrobial activity against Bacillus subtilis CGMCC1.1162 after 24 hrs by modified microdilution method; assay type: functional; details: CGMCC1.1162, 24 h
Staphylococcus aureus = experiment: Antimicrobial activity against Staphylococcus aureus CGMCC1.1361 after 24 hrs by modified microdilution method; assay type: functional; details: CGMCC1.1361, 24 h
Escherichia coli = experiment: Antimicrobial activity against Escherichia coli CGMCC1.1571 after 24 hrs by modified microdilution method; assay type: functional; details: CGMCC1.1571, 24 h
Pseudomonas fluorescens = experiment: Antimicrobial activity against Pseudomonas fluorescens CGMCC1.1828 after 24 hrs by modified microdilution method; assay type: functional; details: CGMCC1.1828, 24 h
Aspergillus niger = experiment: Antimicrobial activity against Aspergillus niger CGMCC3.316 after 48 hrs by modified microdilution method; assay type: functional; details: CGMCC3.316, 48 h
Candida albicans = experiment: Antimicrobial activity against Candida albicans CGMCC2.2086 after 48 hrs by modified microdilution method; assay type: functional; details: CGMCC2.2086, 48 h
Candida tropicalis = experiment: Antimicrobial activity against Candida tropicalis CGMCC2.3967 after 48 hrs by modified microdilution method; assay type: functional; details: CGMCC2.3967, 48 h
[1] = Cytotoxicity against human […] cells assessed as cell survival after 48 hrs by MTT assay; assay type: functional, cell-based
HepG2 = experiment: Cytotoxicity against human HepG2 cells assessed as cell survival after 48 hrs by MTT assay; assay type: functional, cell-based; details: HepG2, 48 h

| SMILES | MIC (Bacillus subtilis) [µg/mL] | MIC (Staphylococcus aureus) [µg/mL] | MIC (Escherichia coli) [µg/mL] | MIC (Pseudomonas fluorescens) [µg/mL] | MIC (Aspergillus niger) [µg/mL] | MIC (Candida albicans) [µg/mL] | MIC (Candida tropicalis) [µg/mL] | IC50 [1] [µM] | IC50 (HepG2) [µM] |
| --- | --- | --- | --- | --- | --- | --- | --- | --- | --- |
| COC(=O)[C@]12CC[C@@H](C)[C@H](C)[C@H]1C1=CC[C@@H]3[C@@]4(C)Cc5c([nH]c6c(OC)cccc56)C(C)(C)[C@@H]4CC[C@@]3(C)[C@]1(C)CC2 | 31.2 (≈ 54.6 µM) | 31.2 (≈ 54.6 µM) | > 100 | > 100 | > 100 | > 100 | > 100 | > 100 | > 100 |
| CCOc1ccc2[nH]c3c(c2c1)C[C@]1(C)[C@H]2CC=C4[C@@H]5[C@@H](C)[C@H](C)CC[C@]5(C(=O)OC)CC[C@@]4(C)[C@]2(C)CC[C@H]1C3(C)C | 31.2 (≈ 53.3 µM) | 31.2 (≈ 53.3 µM) | > 100 | 62.5 (≈ 107 µM) | > 100 | > 100 | > 100 | > 100 | > 100 |
| C[C@H]1[C@H](C)CC[C@]2(C(=O)NCCCN(C)C)CC[C@]3(C)C(=CC[C@@H]4[C@@]5(C)Cc6c([nH]c7ccccc67)C(C)(C)[C@@H]5CC[C@]43C)[C@H]12 | 7.8 (≈ 12.7 µM) | 15.6 (≈ 25.5 µM) | 15.6 (≈ 25.5 µM) | 31.2 (≈ 51 µM) | 31.2 (≈ 51 µM) | 31.2 (≈ 51 µM) | 62.5 (≈ 102 µM) | 2.12 | 2.78 |
| C[C@H]1[C@H](C)CC[C@]2(C(=O)NCCCN(C)C)CC[C@]3(C)C(=CC[C@@H]4[C@@]5(C)Cc6c([nH]c7ccc(F)cc67)C(C)(C)[C@@H]5CC[C@]43C)[C@H]12 | 3.9 (≈ 6.19 µM) | 7.8 (≈ 12.4 µM) | 7.8 (≈ 12.4 µM) | 7.8 (≈ 12.4 µM) | 31.2 (≈ 49.5 µM) | 31.2 (≈ 49.5 µM) | 31.2 (≈ 49.5 µM) | 4.6 | 6.03 |
| C[C@H]1[C@H](C)CC[C@]2(C(=O)NCCCN(C)C)CC[C@]3(C)C(=CC[C@@H]4[C@@]5(C)Cc6c([nH]c7ccc(Cl)cc67)C(C)(C)[C@@H]5CC[C@]43C)[C@H]12 | 15.6 (≈ 24.1 µM) | 7.8 (≈ 12.1 µM) | 15.6 (≈ 24.1 µM) | 31.2 (≈ 48.3 µM) | 31.2 (≈ 48.3 µM) | 62.5 (≈ 96.7 µM) | 62.5 (≈ 96.7 µM) | 2.78 | 4.02 |
| C[C@H]1[C@H](C)CC[C@]2(C(=O)NCCCN(C)C)CC[C@]3(C)C(=CC[C@@H]4[C@@]5(C)Cc6c([nH]c7ccc(Br)cc67)C(C)(C)[C@@H]5CC[C@]43C)[C@H]12 | 31.2 (≈ 45.2 µM) | 31.2 (≈ 45.2 µM) | 31.2 (≈ 45.2 µM) | 15.6 (≈ 22.6 µM) | 62.5 (≈ 90.5 µM) | > 100 | 62.5 (≈ 90.5 µM) | 6.8 | 5.65 |
| COc1ccc2[nH]c3c(c2c1)C[C@]1(C)[C@H]2CC=C4[C@@H]5[C@@H](C)[C@H](C)CC[C@]5(C(=O)NCCCN(C)C)CC[C@@]4(C)[C@]2(C)CC[C@H]1C3(C)C | 15.6 (≈ 24.3 µM) | 31.2 (≈ 48.6 µM) | 31.2 (≈ 48.6 µM) | 31.2 (≈ 48.6 µM) | 31.2 (≈ 48.6 µM) | 62.5 (≈ 97.4 µM) | 62.5 (≈ 97.4 µM) | 12.8 | 11.4 |
| COc1cccc2c3c([nH]c12)C(C)(C)[C@@H]1CC[C@]2(C)[C@H](CC=C4[C@@H]5[C@@H](C)[C@H](C)CC[C@]5(C(=O)NCCCN(C)C)CC[C@]42C)[C@@]1(C)C3 | 31.2 (≈ 48.6 µM) | 62.5 (≈ 97.4 µM) | 31.2 (≈ 48.6 µM) | 31.2 (≈ 48.6 µM) | > 100 | > 100 | > 100 | 36.2 | 88.8 |
| CCOc1ccc2[nH]c3c(c2c1)C[C@]1(C)[C@H]2CC=C4[C@@H]5[C@@H](C)[C@H](C)CC[C@]5(C(=O)NCCCN(C)C)CC[C@@]4(C)[C@]2(C)CC[C@H]1C3(C)C | 31.2 (≈ 47.6 µM) | 62.5 (≈ 95.3 µM) | 31.2 (≈ 47.6 µM) | 62.5 (≈ 95.3 µM) | > 100 | > 100 | > 100 | 4.88 | 6.25 |
| NCC[C@H](O)C(=O)N[C@@H]1C[C@H](N)[C@@H](O[C@H]2O[C@H](CN)[C@@H](O)[C@H](O)[C@H]2O)[C@H](O)[C@H]1O[C@H]1O[C@H](CO)[C@@H](O)[C@H](N)[C@H]1O [AMIKACIN] | 0.9 (≈ 1.54 µM) | 0.9 (≈ 1.54 µM) | 1.9 (≈ 3.24 µM) | 0.9 (≈ 1.54 µM) | – | – | – | – | – |
| COc1cccc2c1C(=O)c1c(O)c3c(c(O)c1C2=O)C[C@@](O)(C(=O)CO)C[C@@H]3O[C@H]1C[C@H](N)[C@H](O)[C@H](C)O1 [DOXORUBICIN] | – | – | – | – | – | – | – | 0.62 | 0.77 |
| CC(=O)N1CCN(c2ccc(OCC3COC(Cn4ccnc4)(c4ccc(Cl)cc4Cl)O3)cc2)CC1 (stereo not given) [KETOCONAZOLE] | – | – | – | – | 7.8 (≈ 14.7 µM) | 3.9 (≈ 7.34 µM) | 3.9 (≈ 7.34 µM) | – | – |
